Patent US4376785A, “Cyclopropanecarboxylates and a low fish toxic insecticide and/or acaricide containing them” (priority 1980, dated 1983)
Like-named read-outs stand apart in the source and are kept apart here.

Legend:
[1] = tested on: green rice leafhopper (Nephotettix cincticeps), R-strain; assay: Insecticidal activity against green rice leafhopper, sprayed rice plants, Test example 1; type: in vivo; conditions: green rice leafhopper female adults, spray on rice plant, 26° C., 24 hours
Description: The emulsifiable concentrates of the present compounds and reference compounds prepared in Preparation example 1 were each formulated into test solutions having four different concentrations of active ingredient between 500 ppm and 0.5 ppm. Each test solution was sprayed on a rice plant in a 180-ml plastic cup which had elapsed one month after sowing, at a rate of 15 ml/2 cups by means of a turn table. After air-drying, the rice plate was covered with a wire-screen cage, and 15 female adults of green rice leafhopper (Nephotettix cincticeps) (a strain resistant to carbamates and organo-phosphates, hereinafter referred to as R-strain) were liberated therein. The plant was placed in an artificial climate chamber kept at 26° C. After 24 hours, the dead and alive were examined. The median lethal concentratin [LC50 (ppm)] was calculated from the mortality determined by 3 replications. […]

[2] = Toxicity to killifish (TLm48), Test example 1; type: in vivo, Oryzias latipes; conditions: for selectivity ratio: in vivo, TLm48 divided by concentration in water at green rice leafhopper LC50, read-out: Safety coefficient to fishes (a)/(b); for LC50 at 48 h: water, killifish, medium tolerance limit, read-out: Toxicity to fishes TLm48 (a)
Description: Toxicity to killifish (Oryzias latipes) was tested accordig to the test method for toxicity to fishes described in Notification B No. 2735 of the Ministry of Agriculture and Forestry (Nov. 25, 1965). Namely, each of the present compounds (1), (2), (4), (5), (6), (8), (9), (11) and reference compounds was dissolved or suspended in "Tween 80" and diluted successively with dechlorinated tap water. Ten killifish (0.2-0.3 g per fish) were released in a 10-liter glass vessel containing 5 liters of each preparation.
In order to make it clearer that the present compounds have a low toxicity to fishes as well as a high insecticidal activity, a safety coefficient to fishes was calculated from the test results of toxicity to fishes and insecticidal activity. [formula]
A detailed explanation will be given to a method of how to calculate the safety coefficient. In the case of green rice leafhoppers, calculation was based on the concentration of active ingredient in water obtained by applying a test solution containing the active ingredient in an amount corresponding to LC50 (ppm) to a flooded paddy field 5 cm deep at a rate of 100 liter/10 are, provided that all the active ingredient applied entered the water.
For example, the safety coefficient to fishes of the present compound (1) is calculated as follows: The quantity of water in a flooded paddy field 5 cm deep and 10 are in area is 50 tons; when a test solution containing the active ingredient in an amount corresponding to LC50 (ppm) is added to the paddy field at a rate of 100 liter/10 are the concentration of the active ingredient in water (hereinafter referred to as (b)) is 0.008 pp; as the toxicity to fishes [TLm48 (ppm)] (hereinafter referred to as (a)) is >2.0 ppm, said coefficient can be calculated by dividing (a) by (b). In this case, the coefficient is >250, which means that the present compound (1) has a safety higher than 250-fold.

[3] = tested on: housefly (Musca domestica); assay: Housefly mortality, treated filter paper with bait, Test example 7; type: in vivo; conditions: 0.7 ml on filter paper, housefly female adults, 48 hours
Description: The emulsifiable concentrate obtained in preparation Example 1 was diluted 200 times with water (corresponding to 500 ppm of the active ingredient). On the bottom a polyethylene cup of 5.5 cm in diameter was placed a piece of filter paper of the same size, and 0.7 ml of the above dilute liquor was dropped on the filter paper. Sucrose (30 mg) was placed on the paper as bait. Thereafter, 10 housefly female adults (Musca domestica) were liberated in the cup which was then covered with a lid. After 48 hours, the dead and alive were counted to obtain mortality (4 replications).

[4] = tested on: green rice leafhopper (Nephotettix cincticeps); assay: Simulated paddy field box test, green rice leafhopper, Test example 6; type: in vivo; conditions: wettable powder, 100 ppm, 100 liter/10 are, after 48 hours
Description: (§1) The wettable powder of each of the present compounds (1), (3), (5), (6) and (11) prepared in Preparation example 4 was diluted with water so that the concentration of active ingredient was 100 ppm. Soil was placed in a plastic box [5 m×5 m×2 m (deep)] to a level of 50 cm from the bottom, and rice plants about 50 cm high were transplanted at invervals of 50 cm. Water was then placed in the box so that water depth was 5 cm, and 20 killifishes (Oryzias latipes) were liberated therein. Thereafter, the above dilute solution was sprayed on the box at a rate of 100 liter/10 are. The solution fell on the rice plants as well as on the water surface.
(§2) One hour after treatment, 100 female adults of green rice leafhopper (Nephotettix cincticeps) were liberated in the box which was immediately covered with a net.

[5] = tested on: killifishes (Oryzias latipes); assay: Simulated paddy field box test, killifish survival, Test example 6; type: in vivo; conditions: wettable powder, 100 ppm, 100 liter/10 are, water depth 5 cm, after 48 hours
Description: as §1, §2

[6] = tested on: CSMA strain housefly (Musca domestica); assay: Topical application to housefly adults, Test example 8; type: in vivo; conditions: topical to ventral thorax, 0.5 μl/adult, female adults, 24 hours
Description: The present compounds as below and reference compounds were each diluted with acetone into test solutions having four different concentrations of active ingredient. Each test solution was topically applied to the ventral throrax of CSMA strain housefly female adults (Musca domestica), at a rate of 0.5 μl/adult by means of a microapplicator.
The adults were then liberated in a polyethylene cup and fed with milk, sugar and water. After 24 hours, the dead and alive were observed. The median lethal dosage (LD50 μg/adult) was obtained from the morality (3 replications).

[7] = tested on: yellow fever mosquito (Aedes aegypti); type: in vivo; conditions: 50 mg of granules (Preparation example 6) in 100 ml water, full grown larvae, after 24 hours
Description: Fifty milligrams of each of the granules of the present compounds (5) and (11) obtained in Preparation example 6 was placed in a 100-ml beaker containing 100 ml of distilled water, and 30 full grown larvae of yellow fever mosquito (Aedes aegypti) were liberated therein. After 24 hours, 100% of the larvae could be killed.

[8] = tested on: carmine mites (Tetranychus cinnabarinus); assay: Damage to rice plants by carmine mites, Test example 4; type: in vivo; conditions: 500 ppm spray, after 10 days
Description: The emulsifiable concentrate of each of the present compounds (3), (5), (9) and (11) prepared in Preparation example 1 was diluted with water so that the concentration of the active ingredient was 500 ppm. The dilute liquor was thoroughly sprayed on rice plants (grown in a 1/10,000 are Waner's pot) on which carmine mites (Tetranychus cinnabarinus) in all stages were made parasitic.

[9] = tested on: green rice leafhopper (Nephotettix cincticeps); assay: Residual effect test, Text example 5; type: in vivo; conditions: 20 cc per pot, 24 hours
Description: The emulsifiable concentrate of each of the present compounds (5) and (11) prepared in Preparation example 1 was diluted with water so that the conentration of active ingredient was 400 ppm. Thereafter, 20 cc of the dilute solution was sprayed on rice plants grown in a 1/10,000 are Wagner's pot. The rice plants were air-dried and covered with a wire-screen cage, and 15 female adults of green rice leafhopper (Nephotettix cincticeps) were liberated therein. After 24 hours, the dead and alive were examined to obtain mortality. In order to examine the residual effect, the pot was then left as it was for 7 days, and the test insects were liberated in the same manner as above. After 24 hours, the mortality was examined. The experiment was carried out in a greenhouse and the number of replications was three.

Row | Compound | LC50 [1] | selectivity ratio [2] | LC50 at 48 h [2] | mortality at 500 ppm [3] | LD50 [6] | also measured
1 | CC1(C)[C@H](C(=O)OC(C#N)c2ccc(F)c(Oc3ccc(Br)cc3)c2)[C@@H]1C(Br)C(Cl)(Cl)Br (relative stereo) [compound (2), 3-(4-Bromophenoxy)-4-fluoro-α-cyanobenzyl dl-cis-2,2-dimethyl-3-(1,2-dibromo-2,2-dichloroethyl)cyclopropanecarboxylate] | 6.0 ppm | > 167 | > 2 µg/mL | – | – | –
2 | CC1(C)[C@H](C(=O)OC(C#N)c2ccc(F)c(Oc3ccc(Cl)cc3)c2)[C@H]1C(Br)C(Cl)(Cl)Br (relative stereo) [compound (6), 3-(4-Chlorophenoxy)-4-fluoro-α-cyanobenzyl dl-trans-2,2-dimethyl-3-(1,2-dibromo-2,2-dichloroethyl)cyclopropanecarboxylate] | 2.7 ppm | > 200 | > 1 µg/mL | 100% | 0.031 μg/adult | green rice leafhoppers alive [4]: no alive green rice leafhoppers were found; killifishes alive [5]: all of the killifishes were alive
3 | CC1(C)[C@H](C(=O)OC(C#N)c2ccc(F)c(Oc3ccc(Cl)cc3)c2)[C@@H]1C(Br)C(Cl)(Cl)Br (relative stereo) [compound (7), 3-(4-Chlorophenoxy)-4-fluoro-α-cyanobenzyl dl-cis-2,2-dimethyl-3-(1,2-dibromo-2,2-dichloroethyl)cyclopropanecarboxylate] | – | – | – | 100% | – | –
4 | CC1(C)C(C(=O)OC(C#N)c2ccc(F)c(Oc3ccc(Br)cc3)c2)C1C(Br)C(Cl)(Cl)Br (stereo not drawn) [(11), 3-(4-bromphenoxy)-4-fluoro-α-cyanobenzyl 2,2-dimethyl-3-(1,2-dibromo-2,2-dichloroethyl)cyclopropanecarboxylate] | 4.7 ppm | > 200 | > 2 µg/mL | – | – | green rice leafhoppers alive [4]: no alive green rice leafhoppers were found; larvae killed [7]: 100%; damage to rice plants by carmine mites [8]: the spreading of the damage could be prevented; killifishes alive [5]: all of the killifishes were alive; mortality at 400 ppm ([9]; insects liberated 7 days after treatment, read-out: Mortality, effect 7 days after treatment): 100%; mortality at 400 ppm ([9]; read-out: Mortality, effect immediately after treatment): 100%
5 | CC1(C)C(C(=O)OC(C#N)c2cccc(Oc3ccccc3)c2)C1C(Br)C(Cl)(Cl)Br (stereo not drawn) [(A), reference compound] | 5.0 ppm | 50 | – | – | – | –
6 | CC1(C)C(C=C(Cl)Cl)C1C(=O)OC(C#N)c1ccc(F)c(Oc2ccccc2)c1 (stereo not drawn) [(B), reference compound] | 2.5 ppm | < 2 | < 0.01 µg/mL | – | – | –
7 | CC1(C)C(C(=O)OC(C#N)c2cccc(Oc3ccc(Cl)cc3)c2)C1C(Br)C(Cl)(Cl)Br (stereo not drawn) [(C), reference compound] | – | – | – | – | 0.062 μg/adult | –
8 | CC1(C)C(C(=O)OC(C#N)c2cccc(Oc3ccc(Br)cc3)c2)C1C(Br)C(Cl)(Cl)Br (stereo not drawn) [(D), reference compound] | – | – | – | – | 0.063 μg/adult | –
9 | CC1(C)C(C(=O)OC(C#N)c2ccc(F)c(Oc3ccc(Br)cc3)c2)C1C(Br)C(Br)(Br)Br (stereo not drawn) [compound (3), 3-(4-Bromophenoxy)-4-fluoro-α-cyanobenzyl 2,2-dimethyl-3-(1,2,2,2-tetrabromoethyl)cyclopropanecarboxylate] | – | – | – | – | – | green rice leafhoppers alive [4]: no alive green rice leafhoppers were found; damage to rice plants by carmine mites [8]: the spreading of the damage could be prevented; killifishes alive [5]: all of the killifishes were alive
10 | CC1(C)[C@H](C(=O)OC(C#N)c2ccc(F)c(Oc3ccc(Br)cc3)c2)[C@@H]1C(Br)C(Br)(Br)Br (stereo partly drawn) [compound (4), 3-(4-Bromophenoxy)-4-fluoro-α-cyanobenzyl d-cis-2,2-dimethyl-3-(1,2,2,2-tetrabromoethyl)cyclopropanecarboxylate] | 6.3 ppm | > 154 | > 2 µg/mL | – | – | –
11 | CC1(C)C(C(=O)OC(C#N)c2ccc(F)c(Oc3ccc(Cl)cc3)c2)C1C(Br)C(Br)(Br)Br (stereo not drawn) [compound (8), 3-(4-Chlorophenoxy)-4-fluoro-α-cyanobenzyl 2,2-dimethyl-3-(1,2,2,2-tetrabromoethyl)cyclopropanecarboxylate] | 5.8 ppm | > 83 | > 1 µg/mL | 100% | – | –
12 | CC1(C)[C@H](C(=O)OC(C#N)c2ccc(F)c(Oc3ccc(Cl)cc3)c2)[C@H]1C(Br)C(Cl)(Cl)Br (stereo partly drawn) [compound (9), 3-(4-Chlorophenoxy)-4-fluoro-α-cyanobenzyl d-trans-2,2-dimethyl-3-(1,2-dibromo-2,2-dichloroethyl)cyclopropanecarboxylate] | 1.5 ppm | > 333 | > 1 µg/mL | 100% | 0.018 μg/adult | damage to rice plants by carmine mites [8]: the spreading of the damage could be prevented
13 | CC1(C)[C@H](C(=O)OC(C#N)c2ccc(F)c(Oc3ccc(Cl)cc3)c2)[C@@H]1C(Br)C(Cl)(Cl)Br (stereo partly drawn) [compound (10), 3-(4-Chlorophenoxy)-4-fluoro-α-cyanobenzyl d-cis-2,2-dimethyl-3-(1,2-dibromo-2,2-dichloroethyl)cyclopropanecarboxylate] | – | – | – | 100% | 0.030 μg/adult | –
